Experimental data taken from patent US6960430B2, “Screening methods for compounds useful in the regulation of cell proliferation” (priority 1999, dated 2005).
Entries after “also recorded” stand apart in the source; their conditions may differ.

Tests used:
[1] = tested on: tetracycline-regulated transactivator protein tTA; assay: Hsp72 expression from adenovirus vector controlled by tetracycline-regulated transactivator in Rat-1 cells, immunoblot; assay type: cell-based; settings: 20 nM
From the text: Recombinant adenovirus vector expressing Hsp72 (ADTR5Hsp72-GFP, curtesy of Dr. Mosser, Biotechnology Research Institute, Montreal) was constructed by cloning a dicistronic transcription unit encoding Hsp72 and Aequorea Victoria green fluorescent protein gene, separated by the encephalomyocarditis virus internal ribosome entry site from pTR-DC/Hsp70-GFP (Mosser et al., 1997a, Mol. Cell Biol, 17: 5317-5327; Mosser et al., 1997b, Biotechniques 22: 150-161) into an adenovirus transfer vector. Expression of this transcription unit is controlled by the tetracycline-regulated transactivator protein tTA (Mosser et al., 1997b, Biotechniques 22: 150-161) which we expressed from a separate recombinant adenovirus. Recombinant adenoviruses were generated by standard techniques as detailed by (Jani et al., 1997, J. Virol. Methods 64: 111-124). Viruses were used at stock concentration of 10^10 pfu/ml. […] Two-ml cell cultures grown in liquid medium in 35 mm dishes were infected in the presence or the absence of anhydrotetracycline with 3·10^7 pfu of each virus, sufficient for infection of almost 100% cells, and additional 10^7 pfu of each virus was added on days three and seven. After 24 hours incubation with viruses, cells were washed with PBS and placed in fresh media with or without anhydrotetracycline. […]

JNK phosphatase(s) [2] = assay: JNK inactivation (dephosphorylation) after heat shock in Hsp72-expressing MVH cells, immunoblot with antibody to phospho-JNK; assay type: cell-based, rat; settings: for JNK inactivation / JNK dephosphorylation in heat-shocked MVH cells: 0.5 mM added 1 hr after heat shock (45° C., 50 min), recovery at 37° C., JNK1 by phospho-JNK antibody; for JNK activity, drug alone: unstressed cells, vanadate alone
From the text: Another assay for JNK activity allowed us to measure separately activity of two major isoforms (46 kDa JNK1 and 54 kDa JNK2) using JNK antibody specific to activated (phosphorylated) form of JNK (Promega, Wis.). For immunoblot analysis samples were subjected to Western immunoblotting. Secondary antibodies conjugated with peroxidase were visualized with ECL substrates (Amersham, Arlington Heights, Ill.) and resulting films were quantified by densitometry. Measurement of JNK phosphatase activity. In vivo INK phosphatase activity was measured as described earlier (Meriin, A. B., et al., 1999, Mol. Cell Biol. (In press)). […] […] The rate of JNK dephosphorylation was assessed under these conditions by immunoblotting with antibody which recognizes the activated (phosphorylated) form of JNK specifically.

MVH cells = assay: Apoptosis by Hoechst-33342 staining in MVH cells (Rat-1 variant constitutively expressing Hsp72); assay type: cell-based; settings: heat shock 45° C., 50 min, 0.5 mM, apoptosis assessed 7 hr after treatment
Procedure: The level of apoptosis was measured by fluorescent microscopy using Hoechst-33342 DNA-specific dye (10 μM). Shrinked cells with condensed or fragmented nuclei were counted as apoptotic. Cells were washed twice with PBS on a dish, aspirated and lysed by thoroughly scraping with a plastic scraper in 200 μL lysis buffer per a 35 mm dish (40 mM HEPES, pH 7.5; 50 mM KCl; […]; 2 mM DTT, 1 mM Na3VO4; 50 mM β-glycerophosphate; 50 mM NaF; 5 mM EDTA; 5 mM EGTA; 1 mM PMSF; 1 mM benzamedine; 5 μg/ml of each: leupeptine, pepstatine A, aprotenin). The lysates were clarified by centrifugation in a microcentrifuge at 15,000 rpm for 5 min. Total protein concentration was measured in the supernatants after which they were diluted with the lysis buffer to achieve equivalent concentration in all samples. All procedures were performed at 4° C.

JNK phosphatase(s) [3] = settings: various cell lines; cited from earlier work

## Cc1c2c(c(O)c3c(O)cccc13)C(=O)[C@]1(O)C(=O)C(C(N)=O)=C(O)[C@@H](N(C)C)[C@@H]1C2 [anhydrotetracycline]
[1]
  Hsp72 expression after infection with both adenoviruses: expression of Hsp72 in the absence of tetracycline but not in the presence of 20 nM of anhydrotetracycline

## [O]=[V]([O-])([O-])[O-] [ortho-vanadate]
JNK phosphatase(s) [2]
  JNK inactivation / JNK dephosphorylation in heat-shocked MVH cells: strongly inhibited JNK inactivation
JNK phosphatase(s) [2]; listed as Ortho-vanadate
  JNK inactivation / JNK dephosphorylation in heat-shocked MVH cells: inhibits JNK dephosphorylation
  JNK activity, drug alone: no significant effect on JNK activity
JNK phosphatase(s) [2]; listed as vanadate
  JNK activity, drug alone: affected neither JNK activity
MVH cells; listed as Ortho-vanadate
  heat-induced apoptosis of MVH cells (thermoresistance, anti-apoptotic effect of Hsp72): abolishes thermoresistance
MVH cells; listed as vanadate
  heat-induced apoptosis of MVH cells (thermoresistance, anti-apoptotic effect of Hsp72): completely reversed anti-apoptotic effect of Hsp72; also recorded: dramatically increased
JNK phosphatase(s) [3]
  suppression of JNK phosphatase(s): effectively suppresses JNK phosphatase(s)
